Measured values taken from patent US10059689B2, “Substituted heteroaryl compounds and methods of use” (Sunshine Lake Pharma Co., Ltd., priority 2014, dated 2018).

Key:
[1] = target: T1, Aurora-A (h) (Homo sapiens, UniProt O14965); assay: Aurora-A (h) kinase assay; assay type: biochemical
T1 construct: purchased Millipore UK Ltd (contract assay service)
T1 sequence (O14965 1-403): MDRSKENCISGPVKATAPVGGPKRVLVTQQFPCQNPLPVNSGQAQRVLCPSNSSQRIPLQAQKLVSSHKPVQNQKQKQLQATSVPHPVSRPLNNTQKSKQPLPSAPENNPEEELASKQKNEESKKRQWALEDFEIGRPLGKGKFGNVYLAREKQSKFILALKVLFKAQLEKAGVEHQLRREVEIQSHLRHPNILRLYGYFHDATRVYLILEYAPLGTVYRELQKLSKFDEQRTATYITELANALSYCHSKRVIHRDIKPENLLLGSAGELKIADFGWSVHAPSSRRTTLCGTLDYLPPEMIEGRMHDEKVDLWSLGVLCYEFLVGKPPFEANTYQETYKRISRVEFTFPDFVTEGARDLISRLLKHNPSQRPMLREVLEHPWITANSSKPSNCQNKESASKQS
Method: (§1) Kinase assays can be performed by measurement of incorporation of γ-33P ATP into immobilized myelin basic protein (MBP). High binding white 384 well plates (Greiner) are coated with MBP (Sigma #M-1891) by incubation of 60 μL/well of 20 μg/mL MBP in Tris-buffered saline (TBS; 50 mM Tris pH 8.0, 138 mM NaCl, 2.7 mM KCl) for 24 h at 4° C. Plates are washed 3× with 100 μL TBS. Kinase reactions are carried out in a total volume of 34 μL in kinase buffer (according to the need to make, for example, 5 mM Hepes pH 7.6, 15 mM NaCl, 0.01% bovine gamma globulin (Sigma #I-5506), 10 mM MgCl2, 1 mM DTT, 0.02% TritonX-100). Compound dilutions are performed in DMSO and added to assay wells to a final DMSO concentration of 1%. Each data point is measured in duplicate, and at least two duplicate assays are performed for each individual compound determination. Enzyme is added to final concentrations of 10 nM or 20 nM, for example. A mixture of unlabeled ATP and γ-33P ATP is added to start the reaction (2×10^6 cpm of γ-33P ATP per well (3000 Ci/mmole) and 10 μM unlabeled ATP, typically. The reactions are carried out for 1 h at room temperature with shaking Plates are washed 7× with TBS, followed by the addition of 50 μL/well scintillation fluid (Wallac). Plates are read using a Wallac Trilux counter. This is only one format of such assays; various other formats are possible, as known to one skilled in the art.
The above assay procedure can be used to determine the IC50 for inhibition and/or the inhibition constant, Ki. The IC50 is defined as the concentration of compound required to reduce the enzyme activity by 50% under the condition of the assay. The IC50 value is estimated by preparing a 10 point curve using a ½ log dilution series (for example, a typical curve may be prepared using the following compound concentrations: 3 μM, 1 μM, 0.3 μM, 0.1 μM, 0.03 μM, 0.01 μM, 0.003 μM, 0.001 μM, 0.0003 μM and 0 μM).
Aurora-A (h) is incubated with 8 mM MOPS pH 7.0, 0.2 mM EDTA, 200 μM LRRASLG (Kemptide), 10 mM MgAcetate and [γ-^33P-ATP] […]

[2] = target: T2, TYK2 (h) (Homo sapiens, UniProt P29597); assay: TYK2 (h) kinase assay; assay type: biochemical
T2 construct: purchased Millipore UK Ltd (contract assay service)
Method: as §1, with “Enzyme is added to final concentrations of 10 nM or 20 nM, for example.” left out, “art. […]” for “art.”

T2 sequence (P29597 whole entry): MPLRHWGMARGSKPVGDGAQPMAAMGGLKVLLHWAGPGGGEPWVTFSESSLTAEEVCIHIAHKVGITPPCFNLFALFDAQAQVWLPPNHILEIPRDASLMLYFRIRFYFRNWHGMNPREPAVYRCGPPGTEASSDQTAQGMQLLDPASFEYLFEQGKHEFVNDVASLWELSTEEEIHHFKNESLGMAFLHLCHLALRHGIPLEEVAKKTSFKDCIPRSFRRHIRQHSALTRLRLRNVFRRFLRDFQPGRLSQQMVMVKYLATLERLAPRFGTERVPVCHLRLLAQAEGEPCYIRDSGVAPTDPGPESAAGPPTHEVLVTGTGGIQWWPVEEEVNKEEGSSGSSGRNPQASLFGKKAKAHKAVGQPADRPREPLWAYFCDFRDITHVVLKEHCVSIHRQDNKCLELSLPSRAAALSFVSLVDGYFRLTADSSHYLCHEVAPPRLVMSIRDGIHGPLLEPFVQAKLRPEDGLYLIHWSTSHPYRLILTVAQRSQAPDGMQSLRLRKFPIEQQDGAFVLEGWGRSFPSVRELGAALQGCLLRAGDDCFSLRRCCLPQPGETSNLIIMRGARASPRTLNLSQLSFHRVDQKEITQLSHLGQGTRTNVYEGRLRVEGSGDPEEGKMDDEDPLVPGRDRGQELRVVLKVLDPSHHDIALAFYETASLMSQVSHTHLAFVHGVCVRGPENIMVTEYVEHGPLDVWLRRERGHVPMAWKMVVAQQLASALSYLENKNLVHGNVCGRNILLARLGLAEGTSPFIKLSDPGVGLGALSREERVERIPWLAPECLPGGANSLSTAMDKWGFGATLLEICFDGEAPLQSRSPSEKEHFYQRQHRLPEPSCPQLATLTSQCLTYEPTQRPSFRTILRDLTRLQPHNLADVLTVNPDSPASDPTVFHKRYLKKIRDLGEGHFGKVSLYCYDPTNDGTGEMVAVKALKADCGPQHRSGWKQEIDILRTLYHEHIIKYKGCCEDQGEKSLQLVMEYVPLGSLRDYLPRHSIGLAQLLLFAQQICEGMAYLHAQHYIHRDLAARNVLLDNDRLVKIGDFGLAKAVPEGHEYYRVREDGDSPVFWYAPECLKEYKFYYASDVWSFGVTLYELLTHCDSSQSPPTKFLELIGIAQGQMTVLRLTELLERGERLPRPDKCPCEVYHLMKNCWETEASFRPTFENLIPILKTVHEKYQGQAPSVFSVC

Cn1cc(Nc2ncc(Cl)c(NC3CCN(c4ccc(C#N)cn4)CC3)n2)cn1 [Ex. 1, 6-(4-((5-chloro-2-((1-methyl-1H-pyrazol-4-yl)amino)pyrimidin-4-yl)amino)piperidin-1-yl)nicotinonitrile]
IC50 [1]: 68 nM

Cc1c2ccc(Nc3ncc(Cl)c(NC4CCN(c5ccc(C#N)cn5)CC4)n3)cc2nn1C [Ex. 4]
IC50 [2]: 2 nM
IC50 [1]: 503 nM

CN(c1nc(Nc2cnn(C)c2)ncc1Cl)C1CCN(c2ccc(C#N)cn2)CC1 [Ex. 5, 6-(4-((5-chloro-2-((1-methyl-1H-pyrazol-4-yl)amino)pyrimidin-4-yl) (methyl)amino)piperidin-1-yl)nicotinonitrile]
IC50 [2]: 22 nM
IC50 [1]: 66 nM
